Test [1] deals with pigs, 75 min LAD balloon occlusion and 3 h reperfusion. In words: Closed chest porcine model of cardiac ischemia/reperfusion: infarct size (NEC/AAR). The format is in vivo, pig. The note with it: repeated at 90 min reperfusion. The source says: To study the utility of 2-O, 3-O desulfated heparin (ODSH) in reducing ischemic tissue injury from injurious Ca^++ overload, a closed chest porcine model of cardiac ischemia was used. The study was designed to determine if previous findings indicating the protective effect of ODSH in reducing myocardial infarction reperfusion injury in open chest dogs were reproducible in an animal model of ischemia/reperfusion injury more relevant to humans. […] Yorkshire-cross pigs (Palmetto Research Swine, Reevesville, S.C.) of either sex, weighing 25-35 kg, were used for the experiment was employed. Animals were premedicated with an intramuscular injection of ketamine (30 mg/kg), acepromazine (1.1 mg/kg), and atropine (0.05 mg/kg). Pigs were induced with an IV injection of thiopental (10 mg/kg) and maintained with continuous inhalation of isoflurane (1-1.5%). Aspirin (81 mg) was administered by IV prior to the experiment.
Arterial access was achieved via bilateral femoral artery cut-downs for the insertion of 8F sheaths. Central venous and carotid access was achieved via a neck incision to expose the external jugular vein and common carotid artery. […] Baseline cardiodynamic and hemodynamic data were measured using a solid state transducer-tipped catheter in the left ventricle (Millar Instruments, Houston, Tex.) to measure left ventricular pressure, and a fluid-filled transducer connected to the side port of the femoral artery sheath to measure peripheral arterial pressure. Approximately 3-4 million neutron-activated microspheres (BioPhysics Assay Laboratory, Inc, Worcester, Ma) (15 μm) were delivered through a pig-tail catheter into the left ventricle over a 30 second period, to quantify regional myocardial blood flow (RMBF). […] Balloon occlusion time was 75 minutes with coronary occlusion confirmed by contrast angiography, ST segment changes on electrocardiography, and quantitatively confirmed by microspheres delivered at the end of ischemia, as described above. […]

For test [2], the system named is blood coagulation (aPTT). Put plainly: Phase I bolus plus 72 hour infusion study: aPTT. The format is in vivo, human. Conditions: from relationship of aPTT change and ODSH level, FIG. 23.
Method: A study was performed in eight (8) healthy adult male and female subjects to assess the effects of a bolus dose and 72 hour infusion of 2-O, 3-O desulfated heparin. The study was a Phase I study with a three day treatment period. Doses were adjusted to maintain an aPTT level of 40-45 seconds. Subjects were between the ages of 18 and 60, were not pregnant, and were normal in body weight. They all had normal coagulation function and hemoglobin values at baseline.
Subjects received an initial bolus of 8 mg/kg of ODSH over 15 minutes, followed by 72 hours continuous infusion beginning at 0.58 mg/kg/hr. For each subject ODSH as a 50 mg/ml formulation was diluted with normal saline and administered as a bolus infused over 15 minutes containing the calculated amount of ODSH the subject was to receive, followed by infusion of ODSH diluted in saline. The infusion dose was adjusted to maintain an aPTT of 40-45 seconds. […] Using values for aPTT and ODSH levels, pharmacokinetic parameters were calculated by noncompartmental methods using a commercial software program (PhAST 2.3-001). The following pharmacokinetic parameters were calculated as above: Cmax; Kel; tmax; AUC O-t; AUCinf, t1/2; CL; and Vdss.

Turning to 2-O, 3-O desulfated heparin [ODSH], the “infarct size (NEC/AAR) compared to control” value in test [1] (ODSH 5 mg/kg IV bolus 2 min before balloon deflation) is on record as “No significant reduction in infarct size”. In addition, the “infarct size (NEC/AAR) relative to control” value in test [1] (ODSH 15 mg/kg IV bolus 2 min before balloon deflation) is listed as “significant infarct size reduction”. Moreover, the “infarct size (NEC/AAR) relative to control” value in test [1] (ODSH 45 mg/kg IV bolus 2 min before balloon deflation) is “significant infarct size reduction”. Moreover, in test [2], the “aPTT above baseline at ODSH blood concentrations of 100 μg/mL” value was “approximately 50 seconds” and the “aPTT absolute value at ODSH blood concentrations of 100 μg/mL” value is “about 75 seconds”.

(Values after US20090238852A1, “METHODS FOR CONTROLLING INTRACELLULAR CALCIUM LEVELS ASSOCIATED WITH AN ISCHEMIC EVENT” (University of Utah Research Foundation, priority 2008, published 2009).)
